Measured values: patent publication US20100256105A1, “NOVEL COMPOUNDS” (AstraZeneca R&D, priority 2009, published 2010)
pIC50: −log10 of the molar value.

The compounds below were run against T1, recombinant human GR (Homo sapiens, UniProt P04150) (assay: Human Glucocorticoid Receptor (GR) Assay, fluorescence polarization). Settings: GS Red tracer, 2 hours at room temperature, 100% control 10 μM Dexamethasone, read-out: Inhibition of GR binding, IC50.
T1 construct: purchased Panvera/Invitrogen P2812 (kit P2893)
T1 sequence (P04150 1-777): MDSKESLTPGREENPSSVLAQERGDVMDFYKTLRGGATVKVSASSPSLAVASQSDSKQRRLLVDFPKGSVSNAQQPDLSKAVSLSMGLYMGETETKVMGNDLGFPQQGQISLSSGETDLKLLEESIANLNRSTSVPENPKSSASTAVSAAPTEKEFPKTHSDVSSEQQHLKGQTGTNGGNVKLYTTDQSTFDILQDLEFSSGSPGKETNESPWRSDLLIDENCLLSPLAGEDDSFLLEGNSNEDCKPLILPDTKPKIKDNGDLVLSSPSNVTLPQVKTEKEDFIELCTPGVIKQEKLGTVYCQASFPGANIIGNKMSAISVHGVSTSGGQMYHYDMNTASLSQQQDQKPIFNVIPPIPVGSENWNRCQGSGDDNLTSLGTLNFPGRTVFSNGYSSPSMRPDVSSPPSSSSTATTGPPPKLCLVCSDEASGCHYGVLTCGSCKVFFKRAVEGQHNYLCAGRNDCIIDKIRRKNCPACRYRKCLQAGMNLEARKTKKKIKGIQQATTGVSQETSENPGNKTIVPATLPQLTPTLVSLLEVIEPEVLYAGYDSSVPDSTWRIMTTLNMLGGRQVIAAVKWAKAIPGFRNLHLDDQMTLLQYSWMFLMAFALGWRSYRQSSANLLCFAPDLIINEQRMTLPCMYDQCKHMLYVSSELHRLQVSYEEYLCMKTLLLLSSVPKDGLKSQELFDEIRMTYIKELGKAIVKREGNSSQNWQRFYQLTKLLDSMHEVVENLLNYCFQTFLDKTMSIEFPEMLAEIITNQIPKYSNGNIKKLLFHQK
Method: Human Glucocorticoid Receptor (GR) Assay The assay is based on a commercial kit from Panvera/Invitrogen (Part number P2893). The assay technology is fluorescence polarization. The kit utilises recombinant human GR (Panvera, Part number P2812), a Fluoromone™ labelled tracer (GS Red, Panvera, Part number P2894) and a Stabilizing Peptide 10× (Panvera, Part number P2815). The GR and Stabilizing Peptide reagents are stored at −70° C. while the GS Red is stored at −20° C. Also included in the kit are 1M DTT (Panvera, Part number P2325, stored at −20° C.) and GR Screening buffer 10× (Panvera, Part number P2814, stored at −70° C. initially but once thawed stored at room temperature). Avoid repeated freeze/thaws for all reagents. The GR Screening buffer 10× comprises 100 mM potassium phosphate, 200 mM sodium molybdate, 1 mM EDTA and 20% DMSO. Test compounds (1 μL) and controls (1 μL) in 100% DMSO were added to black polystyrene 384-well plates (Greiner low volume black flat-bottom, part number 784076). 0% control was 100% DMSO and 100% control was 10 μM Dexamethasone. Background solution (8 μL; assay buffer 10×, Stabilizing Peptide, DTT and ice cold MQ water) was added to the background wells. GS Red solution (7 μL; assay buffer 10×, Stabilizing Peptide, DTT, GS Red and ice cold water) was added to all wells except background wells. GR solution (7 μL; assay buffer 10×, Stabilizing Peptide, DTT, GR and ice cold water) was added to all wells. The plate was sealed and incubated in a dark at room temperature for 2 hours. The plate was read in an Analyst plate reader (LJL Biosystems/Molecular Devices Corporation) or other similar plate reader capable of recording fluorescence polarization (excitation wavelength 530 nm, emission wavelength 590 nm and a dichroic mirror at 561 nm).

| Compound | pIC50 |
| --- | --- |
| CC1=C[C@@H]2[C@H]([C@@H](O)C[C@@]3(C)[C@H]2CC[C@]3(OC(=O)c2cocn2)C(=O)SCF)[C@@]2(C)Cc3cnn(-c4ccc(F)nc4)c3C=C12 [Example 14, (1R,3aS,3bS,10aR,10bS,11S,12aS)-1-{[(fluoromethyl)sulfanyl]carbonyl}-7-(6-fluoropyridin-3-yl)-11-hydroxy-5,10a,12a-trimethyl-1,2,3,3a,3b,7,10,10a,10b,11,12,12a-dodecahydrocyclopenta[5,6]naphtho [1,2-f]indazol-1-yl 1,3-oxazole-4-carboxylate] | 8.54 |
| CC1=C[C@@H]2[C@H]([C@@H](O)C[C@@]3(C)[C@H]2CC[C@]3(OC(=O)c2cocn2)C(=O)SCC#N)[C@@]2(C)Cc3cnn(-c4ccc(F)nc4)c3C=C12 [Example 15, (1R,3aS,3bS,10aR,10bS,11S,12aS)-1-{[cyanomethyl)sulfanyl]carbonyl}-7-(6-fluoropyridin-3-yl)-11-hydroxy-5,10a,12a-trimethyl-1,2,3,3a,3b,7,10,10a,10b,11,12,12a-dodecahydrocyclopenta[5,6]naphtho [1,2-f]indazol-1-yl 1,3-oxazole-4-carboxylate] | 8.43 |
| COCC(=O)O[C@]1(C(=O)SCF)CC[C@H]2[C@@H]3C=C(C)C4=Cc5c(cnn5-c5ccc(F)nc5)C[C@]4(C)[C@H]3[C@@H](O)C[C@@]21C [Example 16, (1R,3aS,3bS,10aR,11S,12aS)-1-{[(fluoromethyl)sulfanyl]carbonyl}-7-(6-fluoropyridin-3-yl)-11-hydroxy-5,10a,12a-trimethyl-1,2,3,3a,3b,7,10,10a,10b,11,12,12a-dodecahydrocyclopenta[5,6]naphtho [1,2-f]indazol-1-yl methoxyacetate] | 8.82 |
| CCC(=O)O[C@]1(C(=O)SCC#N)[C@H](C)C[C@H]2[C@@H]3C=C(C)C4=Cc5c(cnn5-c5ccccc5)C[C@]4(C)[C@H]3[C@@H](O)C[C@@]21C [Example 17, (1R,2R,3aS,3bS,10aR,10bS,11S,12aS)-1-{[(cyanomethyl)sulfanyl]carbonyl}-11-hydroxy-2,5,10a,12a-tetramethyl-7-phenyl-1,2,3,3a,3b,7,10,10a,- 10b,11,12,12a-dodecahydro-cyclopenta[5,6]naphtho[1,2-f]indazol-1-yl propanoate] | 8.32 |
| CC1=C[C@@H]2[C@H]([C@@H](O)C[C@@]3(C)[C@H]2C[C@@H](C)[C@]3(OC(=O)c2ccco2)C(=O)SCC#N)[C@@]2(C)Cc3cnn(-c4ccccc4)c3C=C12 [Example 18, (1R,2R,3aS,3bS,10aR,10bS,11S,12aS)-1-{[(cyanomethyl)sulfanyl]carbonyl}-11-hydroxy-2,5,10a,12a-tetramethyl-7-phenyl-1,2,3,3a,3b,7,10,10a,- 10b,11,12,12a-dodecahydro-cyclopenta[5,6]naphtho[1,2-f]indazol-1-yl furan-2-carboxylate] | 7.92 |
